In patent publication US6114369A, “Benzimidazole compound” (Nissan Chemical Industries, Ltd., priority 1997, dated 2000):
Where a name gives a salt, the structure may show the parent alone.

Tests used:
[1] = test system: histamine-induced contraction of the isolated guinea-pig ileum; assay: Inhibitory effect on histamine-induced contraction of the isolated guinea-pig ileum; format: cell-based; conditions: Cavia porcellus, 5 min, histamine 0.1 μM, 5 min incubation, 30° C.
Experimental: (§1) Inhibitory effect on substance P and histamine-induced contraction of the isolated guinea-pig ileum. Test compounds were dissolved and diluted in 100% dimethylsulfoxide (DMSO). Substance P (SP, Peninsula Laboratories or Peptide Institute) and histamine dihydrochloride (Wako Pure Chemicals) were dissolved and diluted in distilled water. […] Male Hartley guinea-pigs (300-400 g) were killed by a blow to the head. The ileum was removed and the ileal strips (15-20 mm) were suspended under 0.5 g tension in a 20 ml organ bath containing a modified Tyrode solution maintained at 30° C. and aerated with 95% O2 +5% CO2. Responses were recorded isotonically. Tissues were equilibrated for 15 min, and then the constant responses to histamine (1 μM) were obtained. Then substance P (0.01 μM) or histamine (0.1 μM)-induced contraction was obtained after 5 min incubation with or without the test compounds. Contractile responses to substance P or histamine with the test compound were expressed as a percentage of those without the test compound. IC50 was the concentration of the test compound required to prevent 50% of the contractile response elicited by substance P or histamine. Compound Nos. of the tested compounds correspond to the numbers of Preparation Examples.

[2] = test system: substance P-induced contraction of the isolated guinea-pig ileum; assay: Inhibitory effect on substance P-induced contraction of the isolated guinea-pig ileum; format: cell-based; conditions: Cavia porcellus, 5 min, substance P 0.01 μM, 5 min incubation, 30° C.
Experimental: as §1

IC50 [1] [nM] | IC50 [2] [nM] | SMILES
29 | 3000 | COc1ccccc1CNC(=O)N(C)CCCN(C)c1nc2ccccc2n1Cc1ccc(F)cc1 [Compound 5]
290 | 590 | CN(CCCN(C)c1nc2ccccc2n1Cc1ccc(F)cc1)C(=O)NCc1cc(C(F)(F)F)cc(C(F)(F)F)c1 [Compound 1, N-methyl-N-(1-(4-fluorobenzyl)benzimidazol-2-yl)-N'-methyl-N'-(3,5-bis(trifluoromethyl)benzylaminocarbonyl)-1,3-propylenediamine hydrochloride]
100 | 950 | CN(CCN(C)C(=O)NCc1cc(C(F)(F)F)cc(C(F)(F)F)c1)Cc1nc2ccccc2n1Cc1ccc(F)cc1 [Compound 4, N-methyl-N-(1-(4-fluorobenzyl)benzimidazol-2-yl)methyl-N'-methyl-N'-(3,5-bis(trifluoromethyl)benzylaminocarbonyl)-1,2-ethylenediamine hydrochloride]
1100 | 2800 | CN(CCN(C)c1nc2ccccc2n1Cc1ccc(F)cc1)C(=O)NCc1cc(C(F)(F)F)cc(C(F)(F)F)c1 [Compound 2, N-methyl-N-(1-(4-fluorobenzyl)benzimidazol-2-yl)-N'-methyl-N'-(3,5-bis(trifluoromethyl)benzylaminocarbonyl)-1,2-ethylenediamine hydrochloride]
41 | 2800 | COc1cccc(CNC(=O)N(C)CCCN(C)c2nc3ccccc3n2Cc2ccc(F)cc2)c1 [Compound 10]
25 | 2700 | CN(CCCN(C)c1nc2ccccc2n1Cc1ccc(F)cc1)C(=O)NCc1ccccc1Cl [Compound 6]
200 | 1500 | CN(CCCN(C)c1nc2ccccc2n1Cc1ccc(F)cc1)C(=O)NCc1cc(Cl)cc(Cl)c1 [Compound 11]
280 | 3000 | COc1cc(CNC(=O)N(C)CCCN(C)c2nc3ccccc3n2Cc2ccc(F)cc2)cc(OC)c1 [Compound 8]
44 | 4100 | COc1ccc(CNC(=O)N(C)CCCN(C)c2nc3ccccc3n2Cc2ccc(F)cc2)cc1 [Compound 12]
36 | 2700 | CN(CCCN(C)c1nc2ccccc2n1Cc1ccc(F)cc1)C(=O)NCc1ccc(F)cc1 [Compound 9]
160 | 1400 | CN(CCCN(C)C(=O)NCc1cc(C(F)(F)F)cc(C(F)(F)F)c1)Cc1nc2ccccc2n1Cc1ccc(F)cc1 [Compound 3, N-methyl-N-(1-(4-fluorobenzyl)benzimidazol-2-yl)methyl-N'-methyl-N'-(3,5-bis(trifluoromethyl)benzylaminocarbonyl)-1,3-propylenediamine hydrochloride]
100 | 4000 | COc1cc(CNC(=O)N(C)CCCN(C)c2nc3ccccc3n2Cc2ccc(F)cc2)cc(OC)c1OC [Compound 7]
28 | 2800 | Cc1ccc(CNC(=O)N(C)CCCN(C)c2nc3ccccc3n2Cc2ccc(F)cc2)cc1 [Compound 13]
